Test results published in US9801901B2, “Alginate oligomers for use in overcoming multidrug resistance in bacteria” (priority 2009, dated 2017).
Values after ≈ are worked out from the molar mass of the structure shown. Like-named read-outs stand apart in the source and are kept apart here.

Legend:
[1] = test system: Pseudomonas aeruginosa (R22, PSA, V1); assay: MIC-assay, Mueller-Hinton broth with G-block alginate, 384-well, OD600
[2] = test system: MDR Providencia stuartii; assay: MIC-assay, Mueller-Hinton broth with G-block alginate, 384-well, OD600 (Table 11); format: cell-based; details: Providencia stuartii (IR57 India, V7) MDR
From the text: (§1) Minimum inhibitory concentration (MICs) of different antibiotics for strains of E. coli and Providencia stuartii displaying MDR phenotypes in the presence of varying concentrations of OligoCF-5/20 (0-10%). (MIC values are expressed in μg ml^−1).

[3] = test system: strains of E. coli displaying MDR phenotypes; assay: as above; format: cell-based; details: Escherichia coli, Escherichia coli (5702, Wales, V11) MDR, read-out: MIC
From the text: as §1

[4] = test system: Acinetobacter lwoffii (6056, V22); assay: MIC-assay, Mueller-Hinton broth with G-block alginate, 384-well, OD600
[5] = test system: Pseudomonas aeruginosa (MDR 301, PSA, V2); assay: as above; details: Pseudomonas aeruginosa, Table 8, V2
[6] = test system: strains of Klebsiella pneumoniae displaying MDR phenotypes; assay: MIC-assay, Mueller-Hinton broth with G-block alginate, 384-well, OD600 (Table 10); format: cell-based; details: read-out: MIC
From the text: Minimum inhibitory concentration (MICs) of different antibiotics for strains of Klebsiella pneumoniae displaying MDR phenotypes in the presence of varying concentrations of OligoCF-5/20 (0-10%). (MIC values are expressed in μg ml^−1).

[7] = test system: Acinetobacter lwoffii (Egypt, V10); assay: MIC-assay, Mueller-Hinton broth with G-block alginate, 384-well, OD600
[8] = test system: Staphylococcus aureus (MRSA) U50; assay: MIC-assay, Mueller-Hinton broth with G-block alginate, 384-well, OD600 (Table 12); format: cell-based; details: MRSA 1040s, U50 MDR, read-out: MIC
From the text: (§2) Minimum inhibitory concentration (MICs) of different antibiotics for strains of Streptococcus oralis and Staphylococcus aureus (MRSA) displaying MDR phenotypes in the presence of varying concentrations of OligoCF-5/20 (0-10%). (MIC values are expressed in μg ml^−1).

[9] = test system: Streptococcus oralis; assay: as above; format: cell-based; details: Streptococcus oralis (5610, V17) MDR, read-out: MIC
From the text: as §2

[10] = test system: Acinetobacter baumannii (Egypt, V9); assay: MIC-assay, Mueller-Hinton broth with G-block alginate, 384-well, OD600
[11] = Table 9, G-block (OligoCF-5/20) 0%
[12] = Table 9, G-block (OligoCF-5/20) 2%
[13] = Table 9, G-block (OligoCF-5/20) 6%
[14] = Table 9, G-block (OligoCF-5/20) 10%

MIC ([1]; Table 8, G-block (OligoCF-5/20) 0%): > 512 µg/mL
MIC ([1]; Table 8, G-block (OligoCF-5/20) 2%): > 512 µg/mL
MIC ([1]; Table 8, G-block (OligoCF-5/20) 6%): 512 µg/mL (≈ 613 µM)
MIC ([1]; Table 8, G-block (OligoCF-5/20) 10%): 256 µg/mL (≈ 307 µM)
MIC ([2]; G-block (OligoCF-5/20) 0%): 8 µg/mL (≈ 9.58 µM)
MIC ([2]; G-block (OligoCF-5/20) 2%): 4 µg/mL (≈ 4.79 µM)
MIC ([2]; G-block (OligoCF-5/20) 6%): 4 µg/mL (≈ 4.79 µM)
MIC ([2]; G-block (OligoCF-5/20) 10%): 2 µg/mL (≈ 2.39 µM)
MIC ([3]; G-block (OligoCF-5/20) 0%): 128 µg/mL (≈ 153 µM)
MIC ([3]; G-block (OligoCF-5/20) 2%): 64 µg/mL (≈ 76.6 µM)
MIC ([3]; G-block (OligoCF-5/20) 6%): 32 µg/mL (≈ 38.3 µM)
MIC ([3]; G-block (OligoCF-5/20) 10%): 64 µg/mL (≈ 76.6 µM)
MIC [4, 11]: < 2 µg/mL
MIC [4, 12]: < 2 µg/mL
MIC [4, 13]: < 2 µg/mL
MIC [4, 14]: < 2 µg/mL
MIC ([5]; G-block (OligoCF-5/20) 0%): > 512 µg/mL
MIC ([5]; G-block (OligoCF-5/20) 2%): > 512 µg/mL
MIC ([5]; G-block (OligoCF-5/20) 6%): 512 µg/mL (≈ 613 µM)
MIC ([5]; G-block (OligoCF-5/20) 10%): 512 µg/mL (≈ 613 µM)
MIC ([6]; Klebsiella pneumoniae (5712, Wales, V12) MDR, G-block (OligoCF-5/20) 0%): 128 µg/mL (≈ 153 µM)
MIC ([6]; Klebsiella pneumoniae (5712, Wales, V12) MDR, G-block (OligoCF-5/20) 2%): 64 µg/mL (≈ 76.6 µM)
MIC ([6]; Klebsiella pneumoniae (5712, Wales, V12) MDR, G-block (OligoCF-5/20) 6%): 64 µg/mL (≈ 76.6 µM)
MIC ([6]; Klebsiella pneumoniae (5712, Wales, V12) MDR, G-block (OligoCF-5/20) 10%): 32 µg/mL (≈ 38.3 µM)
MIC ([6]; Klebsiella pneumoniae (IR25, India, V6) MDR, G-block (OligoCF-5/20) 0%): 1020 µg/mL (≈ 1230 µM)
MIC ([6]; Klebsiella pneumoniae (IR25, India, V6) MDR, G-block (OligoCF-5/20) 2%): 1020 µg/mL (≈ 1230 µM)
MIC ([6]; Klebsiella pneumoniae (IR25, India, V6) MDR, G-block (OligoCF-5/20) 6%): 512 µg/mL (≈ 613 µM)
MIC ([6]; Klebsiella pneumoniae (IR25, India, V6) MDR, G-block (OligoCF-5/20) 10%): 256 µg/mL (≈ 307 µM)
MIC ([6]; Klebsiella pneumoniae (K3, India, V8) MDR, G-block (OligoCF-5/20) 0%): 256 µg/mL (≈ 307 µM)
MIC ([6]; Klebsiella pneumoniae (K3, India, V8) MDR, G-block (OligoCF-5/20) 2%): 128 µg/mL (≈ 153 µM)
MIC ([6]; Klebsiella pneumoniae (K3, India, V8) MDR, G-block (OligoCF-5/20) 6%): 128 µg/mL (≈ 153 µM)
MIC ([6]; Klebsiella pneumoniae (K3, India, V8) MDR, G-block (OligoCF-5/20) 10%): 128 µg/mL (≈ 153 µM)
MIC [7, 11]: < 1 µg/mL
MIC [7, 12]: < 1 µg/mL
MIC [7, 13]: < 1 µg/mL
MIC [7, 14]: < 1 µg/mL
MIC ([8]; G-block (OligoCF-5/20) 0%): 1020 µg/mL (≈ 1230 µM)
MIC ([8]; G-block (OligoCF-5/20) 2%): 512 µg/mL (≈ 613 µM)
MIC ([8]; G-block (OligoCF-5/20) 6%): 512 µg/mL (≈ 613 µM)
MIC ([8]; G-block (OligoCF-5/20) 10%): 256 µg/mL (≈ 307 µM)
MIC ([9]; G-block (OligoCF-5/20) 0%): 4 µg/mL (≈ 4.79 µM)
MIC ([9]; G-block (OligoCF-5/20) 2%): 4 µg/mL (≈ 4.79 µM)
MIC ([9]; G-block (OligoCF-5/20) 6%): < 0.0312 µg/mL
MIC ([9]; G-block (OligoCF-5/20) 10%): 0.0312 µg/mL (≈ 0.0374 µM)
MIC [10, 11]: 4 µg/mL (≈ 4.79 µM)
MIC [10, 12]: < 1 µg/mL
MIC [10, 13]: < 1 µg/mL
MIC [10, 14]: < 1 µg/mL
SMILES: CC[C@H]1OC(=O)[C@H](C)[C@@H](O[C@H]2C[C@@](C)(OC)[C@@H](O)[C@H](C)O2)[C@H](C)[C@@H](O[C@@H]2O[C@H](C)C[C@H](N(C)C)[C@H]2O)[C@](C)(O)C[C@@H](C)[C@@H]2N[C@@H](COCCOC)O[C@H]([C@H]2C)[C@]1(C)O [Dirithromycin]
